The values below are quoted from earlier work in patent US20050181516A1, “Bioequivalence determination using expression profiling” (priority 2002, published 2005).

In series [1] the test system is atopic dermatitis or psoriasis. To be noted: topical formulation; cited from earlier work.
For series [2], the system named is T cells and mast cells. To be noted: in vitro; cited from earlier work.

Take `CC[C@@H]1/C=C(\C)C[C@H](C)C[C@H](OC)[C@H]2O[C@@](O)(C(=O)C(=O)N3CCCC[C@H]3C(=O)O[C@H](/C(C)=C/[C@@H]3CC[C@H](Cl)[C@H](OC)C3)[C@H](C)[C@@H](O)CC1=O)[C@H](C)C[C@@H]2OC` [ASM981, 33-Epichloro-33-desoxy-ascomycin]: the “outcome of clinical trials in atopic dermatitis or psoriasis” value in series [1] is “clinical regression”. Further, in series [2], the IgE promoter activity result was “decrease”; the “T cell activation and proliferation” value was “decrease”; the inflammatory mediators release entry is reported as “impaired”.
